The target of test [1] is T1, Kinesin-like protein KIF11 (Homo sapiens, UniProt P52732).
T1 sequence (P52732 whole entry): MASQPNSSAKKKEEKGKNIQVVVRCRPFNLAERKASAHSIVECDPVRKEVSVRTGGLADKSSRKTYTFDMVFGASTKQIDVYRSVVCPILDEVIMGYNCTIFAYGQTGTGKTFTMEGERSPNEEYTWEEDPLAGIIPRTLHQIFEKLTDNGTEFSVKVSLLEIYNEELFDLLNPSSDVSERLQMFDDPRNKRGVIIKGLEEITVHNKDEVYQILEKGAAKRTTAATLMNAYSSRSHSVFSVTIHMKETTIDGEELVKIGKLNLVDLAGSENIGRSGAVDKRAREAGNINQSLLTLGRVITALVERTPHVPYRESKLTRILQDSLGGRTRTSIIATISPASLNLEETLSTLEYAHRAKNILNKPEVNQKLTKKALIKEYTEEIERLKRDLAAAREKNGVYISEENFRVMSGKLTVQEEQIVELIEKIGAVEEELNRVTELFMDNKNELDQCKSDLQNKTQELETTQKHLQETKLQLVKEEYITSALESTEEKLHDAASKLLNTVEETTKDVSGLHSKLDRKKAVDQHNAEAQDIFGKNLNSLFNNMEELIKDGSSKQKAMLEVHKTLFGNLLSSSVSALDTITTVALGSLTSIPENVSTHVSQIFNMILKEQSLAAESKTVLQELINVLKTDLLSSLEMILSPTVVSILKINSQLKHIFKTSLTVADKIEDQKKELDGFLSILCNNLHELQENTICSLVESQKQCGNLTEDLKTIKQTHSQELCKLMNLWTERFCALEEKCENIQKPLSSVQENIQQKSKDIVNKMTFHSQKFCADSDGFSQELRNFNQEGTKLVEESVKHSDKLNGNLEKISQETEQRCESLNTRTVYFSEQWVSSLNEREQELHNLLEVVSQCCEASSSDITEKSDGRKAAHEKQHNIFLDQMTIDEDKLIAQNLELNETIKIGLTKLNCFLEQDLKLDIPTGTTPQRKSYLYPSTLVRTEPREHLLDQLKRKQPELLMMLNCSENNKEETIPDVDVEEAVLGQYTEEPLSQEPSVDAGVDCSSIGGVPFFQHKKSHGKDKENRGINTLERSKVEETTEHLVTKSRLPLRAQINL
The test can be described thus: Inhibition C-terminal His-tagged KSP motor domain(1 to 369 residues) (unknown origin) expressed in bacteria assessed as inhibition of microtubule-stimulated ATPase activity preincubated for 30 mins followed by addition of ATP and measured after 15 mins by luciferase-derived luminiscence assay.

The test system of the next test is HCT-116. Kind of test: Cytotoxicity against human HCT-116 cells assessed as cell growth inhibition measured after 72 hrs by MTS assay. It counts as functional.
A further test has as its system A549. The test can be described thus: Cytotoxicity against human A549 cells overexpressing GGT assessed as cell growth inhibition measured after 72 hrs by MTS assay. In kind it is functional. In general terms: Tetrazolium assays rely on reduction of a dye to a coloured formazan, in cell work by metabolically active cells.
The test system of a further test is NCI-H460. The test can be described thus: Cytotoxicity against human NCI-H460 cells expressing low GGT assessed as cell growth inhibition measured after 72 hrs by MTS assay. It counts as functional.

We go through eight molecules from ChEMBL document CHEMBL4732246, “Design, synthesis, and evaluation of a novel prodrug, a S-trityl--cysteine derivative targeting kinesin spindle protein” (Eur J Med Chem, 2021).

pIC50: −log10 of the molar value.

By pIC50 is commonly meant −log10 of the IC50, conventionally taken in molar units. As a reminder, the GI50 is the concentration giving 50% growth inhibition. As to `NCCOCCOCCNC(=O)C(N)CSC1(c2ccc(C(F)(F)F)cc2)c2ccccc2CCc2ccccc21` (stereo not given), the pIC50 in test [1] was 7.38. The GI50 with HCT-116 is 63 nM. The corresponding values for `CN(C)CCNC(=O)[C@@H](N)CSC1(c2ccc(C(F)(F)F)cc2)c2ccccc2CCc2ccccc21` are 7.25 and 115 nM. Take `CC(=O)N[C@@H](CSC1(c2ccc(C(F)(F)F)cc2)c2ccccc2CCc2ccccc21)C(=O)O`: the GI50 in the test with HCT-116 is over 1000 nM. As for `N[C@@H](CSC1(c2ccc(C(F)(F)F)cc2)c2ccccc2CCc2ccccc21)C(=O)O`, the GI50 came to 33 nM with HCT-116, 33 nM with A549 and 15 nM with NCI-H460.

As for `CC(C)(C)OC(=O)N[C@@H](CSC1(c2ccc(C(F)(F)F)cc2)c2ccccc2CCc2ccccc21)C(=O)O`, in the test on HCT-116, the GI50 was over 1000 nM. `N[C@@H](CSC1(c2ccc(C(F)(F)F)cc2)c2ccccc2CCc2ccccc21)C(=O)NCCO`: in test [1], the negative-log IC50 (pIC50) is 7.10. The GI50 in the test on HCT-116 is 60 nM.

As for `N[C@@H](CSC1(c2ccc(C(F)(F)F)cc2)c2ccccc2CCc2ccccc21)C(=O)NCc1ccccc1`, the pIC50 in test [1] was 6.45. Moreover, in the test with HCT-116, the GI50 came to 282 nM. In the case of `N[C@@H](CSC1(c2ccc(C(F)(F)F)cc2)c2ccccc2CCc2ccccc21)C(=O)NCCN1CCCCC1`, the pIC50 in test [1] was 6.84. Further, the GI50 in the test with HCT-116 turned out to be 191 nM.
